Results as given in patent publication US4978666A, “Optically active piperazine derivative” (Nippon Chemiphar Co., Ltd., priority 1988, dated 1990).
Structures can show the parent of a compound that is named as a salt.

Tests used:
Assay type in all cases: in vivo
[1] = tested on: SD-strain female rats; test: Acute toxicity (oral LD50 in rats); conditions: SD-strain female rats 150 to 200 g, observed for 2 weeks, 20160 min, dihydrochloride
From the text: (§1) The peripheral vasodilating effect (action for increase of blood flow of vertebrae) and acute toxicity of (-)-1-(3,4-dimethoxyphenyl)-2-(4-diphenylmethylpiperazinyl)ethanol dihydrochloride according to the invention, (+)-1-(3,4-dimethoxyphenyl)-2-(4-diphenylmethylpiperazinyl)ethanol dihydrochloride, and (±)-1-(3,4-dimethoxyphenyl)-2-(4-diphenylmethylpiperazinyl)ethanol dihydrochloride are illustrated by the following examples.
(§2) Each of the (-)-, (+)- and (±)-piperazine derivatives were orally administered to SD-strain female rats each having a body weight of 150 to 200 g.

[2] = tested on: vertebral blood flow; test: Peripheral vasodilating effect (vertebral blood flow increase in anesthetized dogs); conditions: i.v., anesthetized mongrel dogs
From the text: as §1
Mongrel Dogs of both sexes each weighing about 10 kg were anesthetized with sodium pentobarbital (35 mg/kg, i.v.). Artificial respiration was performed with room air. The vertebral blood flow and femoral blood flow were measured by an electromagnetic flowmeter (avilable from Nihon Koden, MF-27 and MFV-1100) with flow probes. The blood pressure and heart rate were measured at the same time. […]

[3] = Acute toxicity (oral LD50 in rats); conditions: rat, in vivo, po, SD-strain female rats 150 to 200 g, observed for 2 weeks
From the text: as §1, §2

[4] = Concentration in blood after administration to beagle dogs; conditions: as compared with administration of the (+)-derivative

Compound: COc1ccc(C(O)CN2CCN(C(c3ccccc3)c3ccccc3)CC2)cc1OC (single isomer, unassigned; (+)) [(+)-Derivative, (+)-1-(3,4-dimethoxyphenyl)-2-(4-diphenylmethylpiperazinyl)ethanol dihydrochloride]
- LD50 [1]: 14.3 mg/kg
- Percentage of vertebral blood flow increase ([2]; 0.03 mg/kg, dihydrochloride): 13.4%
- Percentage of vertebral blood flow increase ([2]; 0.1 mg/kg, dihydrochloride): 34.3%

Compound: COc1ccc(C(O)CN2CCN(C(c3ccccc3)c3ccccc3)CC2)cc1OC (racemic) [(±)-Derivative, (±)-1-(3,4-dimethoxyphenyl)-2-(4-diphenylmethylpiperazinyl)ethanol dihydrochloride]
- LD50 at 336 h [3]: 29.1 mg/kg
- Percentage of vertebral blood flow increase ([2]; 0.03 mg/kg): 16.9%
- Percentage of vertebral blood flow increase ([2]; 0.1 mg/kg): 43.9%

Compound: COc1ccc(C(O)CN2CCN(C(c3ccccc3)c3ccccc3)CC2)cc1OC (single isomer, unassigned; (-)) [(-)-Derivative, (-)-1-(3,4-dimethoxyphenyl)-2-(4-diphenylmethylpiperazinyl)ethanol dihydrochloride]
- LD50 [1]: 45.4 mg/kg
- Percentage of vertebral blood flow increase ([2]; 0.03 mg/kg, dihydrochloride): 22.9%
- Percentage of vertebral blood flow increase ([2]; 0.1 mg/kg, dihydrochloride): 48.0%
- concentration in blood (determined from an area of a measured blood concentration curve) [4]: high concentration in blood
